Results reported in PMC12203311, “Design, synthesis, in silico and in vitro evaluation of pyrrole–indole hybrids as dual tubulin and aromatase inhibitors with potent anticancer activities” (RSC Advances, 2025).

What was measured:
[1] = tested on: K-562; assay: NCI60 five-dose screen; assay type: cell-based; details: Homo sapiens, K562, K-562, leukemia; for CC50: read-out: LC50 (the source's name)
[2] = tested on: A549/ATCC; assay: NCI60 five-dose screen; assay type: cell-based; details: Homo sapiens, NSC lung cancer; for CC50: read-out: LC50 (the source's name)
[3] = tested on: EKVX; assay: NCI60 five-dose screen; assay type: cell-based; details: Homo sapiens, NSC lung cancer; for CC50: read-out: LC50 (the source's name)
[4] = tested on: NCI-H322M; assay: NCI60 five-dose screen; assay type: cell-based; details: Homo sapiens, NSC lung cancer; for CC50: read-out: LC50 (the source's name)
[5] = tested on: NCI-H522; assay: NCI60 five-dose screen; assay type: cell-based; details: Homo sapiens, NCI-H522, NSC lung cancer; for CC50: read-out: LC50 (the source's name)
[6] = tested on: COLO 205; assay: NCI60 five-dose screen; assay type: cell-based, human; details: Homo sapiens; for CC50: COLO 205, COLO 205, colon cancer, read-out: LC50 (the source's name); for GI50: COLO 205, colon cancer
[7] = tested on: KM12; assay: NCI60 five-dose screen; assay type: cell-based; details: Homo sapiens, KM12, colon cancer; for CC50: read-out: LC50 (the source's name)
[8] = tested on: SF-539; assay: NCI60 five-dose screen; assay type: cell-based; details: Homo sapiens, SF-539, CNS cancer; for CC50: read-out: LC50 (the source's name)
[9] = tested on: SNB-19; assay: NCI60 five-dose screen; assay type: cell-based; details: Homo sapiens, SNB-19, CNS cancer; for CC50: read-out: LC50 (the source's name)
[10] = tested on: SNB-75; assay: NCI60 five-dose screen; assay type: cell-based; details: Homo sapiens, SNB-75, CNS cancer; for CC50: read-out: LC50 (the source's name)
[11] = tested on: SK-MEL-28; assay: NCI60 five-dose screen; assay type: cell-based; details: Homo sapiens, SK-MEL-28, melanoma; for CC50: read-out: LC50 (the source's name)
[12] = tested on: SK-MEL-5; assay: NCI60 five-dose screen; assay type: cell-based, human; details: Homo sapiens; for CC50: SK-MEL-5, SK-MEL-5, melanoma, read-out: LC50 (the source's name); for GI50: SK-MEL-5, melanoma
[13] = tested on: UACC-62; assay: NCI60 five-dose screen; assay type: cell-based; details: Homo sapiens, UACC-62, melanoma; for CC50: read-out: LC50 (the source's name)
[14] = tested on: OVCAR-4; assay: NCI60 five-dose screen; assay type: cell-based; details: Homo sapiens, OVCAR-4, ovarian cancer; for CC50: read-out: LC50 (the source's name)
[15] = tested on: NCI/ADR-RES; assay: NCI60 five-dose screen; assay type: cell-based, human; details: Homo sapiens, ovarian cancer; for CC50: read-out: LC50 (the source's name)
[16] = tested on: 786-0; assay: NCI60 five-dose screen; assay type: cell-based; details: Homo sapiens, 786-0, renal cancer; for CC50: read-out: LC50 (the source's name)
[17] = tested on: ACHN; assay: NCI60 five-dose screen; assay type: cell-based; details: Homo sapiens, renal cancer; for CC50: read-out: LC50 (the source's name)
[18] = tested on: TK-10; assay: NCI60 five-dose screen; assay type: cell-based; details: Homo sapiens, TK-10, renal cancer; for CC50: read-out: LC50 (the source's name)
[19] = biological target: T1, Human CYP19 (aromatase) (Homo sapiens, UniProt P11511); assay: Aromatase inhibition assay (DBF fluorometric substrate); assay type: biochemical; details: active defined as IC50 < 12.5 µM
T1 construct: purchased GENTEST, Woburn, MA 456260; host or cells: baculovirus/insect cells
T1 sequence (P11511 1-503): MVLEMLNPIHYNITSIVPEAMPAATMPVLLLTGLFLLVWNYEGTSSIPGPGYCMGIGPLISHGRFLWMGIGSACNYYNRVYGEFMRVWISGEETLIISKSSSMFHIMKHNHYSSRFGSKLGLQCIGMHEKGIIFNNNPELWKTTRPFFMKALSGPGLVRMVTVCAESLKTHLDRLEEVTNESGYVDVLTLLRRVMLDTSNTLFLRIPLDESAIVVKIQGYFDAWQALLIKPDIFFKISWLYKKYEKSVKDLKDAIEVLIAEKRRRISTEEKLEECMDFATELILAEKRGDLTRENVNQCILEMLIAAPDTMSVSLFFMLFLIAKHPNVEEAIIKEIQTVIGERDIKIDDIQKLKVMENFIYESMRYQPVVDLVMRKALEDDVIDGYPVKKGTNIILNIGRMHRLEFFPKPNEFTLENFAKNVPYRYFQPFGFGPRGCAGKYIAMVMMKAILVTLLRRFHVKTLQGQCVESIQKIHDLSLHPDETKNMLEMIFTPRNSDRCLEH
Description: Aromatase enzyme was purchased from GENTEST, Woburn, MA01801, USA (Supersom human CYP19+oxidoreductase, baculovirus/insect cell-expressed; Product No. 456260). The aromatase inhibitory activity was performed using Human CYP19 enzymes and DBF as a fluorometric substrate as described by Stresser, et al.[41] with minor modifications. The mixture, containing 100 µL of cofactor/serial dilution buffer was pre-incubated in 37 °C for 10 min. […] After incubation at 37 °C for 30 min, the reaction was stopped by addition of 50 µL of 2.2 M NaOH. Fluorescence signal was monitored using an excitation wavelength of 490 nm and emission wavelength of 530 nm.

Row | SMILES | GI50 [1] [µM] | CC50 [1] [µM] | GI50 [2] [µM] | CC50 [2] [µM] | GI50 [3] [µM] | CC50 [3] [µM] | GI50 [4] [µM] | CC50 [4] [µM] | GI50 [5] [µM] | CC50 [5] [µM] | CC50 [6] [µM] | GI50 [6] [µM] | GI50 [7] [µM] | CC50 [7] [µM] | GI50 [8] [µM] | CC50 [8] [µM] | GI50 [9] [µM] | CC50 [9] [µM] | GI50 [10] [µM] | CC50 [10] [µM] | other results
1 | O=C(N/N=C/c1ccc([N+](=O)[O-])[nH]1)c1[nH]c2ccc(Br)cc2c1-c1ccccc1 [Derivative 3p, (E)-5-Bromo-N′-((5-nitro-1H-pyrrol-2-yl)methylene)-3-phenyl-1H-indole-2-carbohydrazide] | 0.365 | > 100 | 2.23 | 44.9 | 5.37 | 45.7 | 11 | 53.3 | 0.588 | 19.8 | 8.08 | 1.52 | 1.17 | 34.2 | 0.389 | 28.1 | 3.34 | 42.4 | 0.482 | 40.5 | GI50 [11]: 2.24 µM; CC50 [11]: 43.5 µM; CC50 [12]: 8.69 µM; GI50 [12]: 1.02 µM; GI50 [13]: 0.451 µM; CC50 [13]: 40.9 µM; GI50 [14]: 0.679 µM; CC50 [14]: 35.9 µM; GI50 [15]: 0.285 µM; CC50 [15]: 16.2 µM; GI50 [16]: 0.803 µM; CC50 [16]: 41.4 µM; GI50 [17]: 1.26 µM; CC50 [17]: 38 µM; GI50 [18]: 12.2 µM; CC50 [18]: 53.8 µM; IC50 [19]: 1.4 ± 0.3 µM
2 | O=C(N/N=C/c1cc([N+](=O)[O-])c[nH]1)c1[nH]c2ccc(Br)cc2c1-c1ccccc1 [Derivative 3q, (E)-5-Bromo-N′-((4-nitro-1H-pyrrol-2-yl)methylene)-3-phenyl-1H-indole-2-carbohydrazide] | 0.387 | > 100 | 1.79 | > 100 | > 100 | > 100 | 46.4 | > 100 | 0.722 | > 100 | > 100 | 1.28 | 1.39 | > 100 | 0.822 | > 100 | 6.25 | > 100 | 0.242 | > 100 | GI50 [11]: 0.89 µM; CC50 [11]: > 100 µM; CC50 [12]: 69.9 µM; GI50 [12]: 0.671 µM; GI50 [13]: 0.538 µM; CC50 [13]: > 100 µM; GI50 [14]: 1.06 µM; CC50 [14]: > 100 µM; GI50 [15]: 0.434 µM; CC50 [15]: > 100 µM; GI50 [16]: 2.21 µM; CC50 [16]: > 100 µM; GI50 [17]: 0.791 µM; CC50 [17]: > 100 µM; GI50 [18]: 76 µM; CC50 [18]: > 100 µM; IC50 [19]: > 12.5 µM; aromatase inhibition [19]: inactive against aromatase
